Source: ChEMBL document CHEMBL5143671, “Discovery of (R)-(3-fluoropyrrolidin-1-yl)(6-((5-(trifluoromethyl)pyridin-2-yl)oxy)quinolin-2-yl)methanone (ABBV-318) and analogs as small molecule Nav1.7/ Nav1.8 blockers for the treatment of pain” (Bioorg Med Chem, 2022)
≈ marks a conversion by molar mass, not a printed value.

Tests used:
[1] = Cardiotoxicity in conscious dog CV model assessed as effect on QT interval upto 5.5 microg/ml by ECG analysis; type: toxicity, Canis lupus familiaris; details: dose < 5.5 µg/ml
Rattus norvegicus [2] = species on record: Rattus norvegicus; experiment: animal or person; details: Sprague-Dawley
[3] = Drug concentration in plasma of monoiodoacetate-induced Sprague-Dawley rat model of osteoarthritis at 10 mg/kg, po administered for 5 days and measured after 15 mins; type: ADME, organism-based; details: time 5 day
physchem [4] = details: phosphate buffer
in vivo [5] = details: Sprague-Dawley, rat, po
[6] = Cardiotoxicity in conscious dog CV model assessed as effect on mean arterial pressure upto […] microg/ml […]; type: toxicity, Canis lupus familiaris; details: dose < 5.5 µg/ml
[7] = rat, in vivo, po
[8] = biological target: Sodium channel protein type 2 subunit alpha (Homo sapiens, UniProt Q99250); experiment: Inhibition of recombinant human Nav1.2 expressed in HEK293 cells incubated for 3 mins by FRET based membrane potential assay; type: cell-based
in vivo [9] = details: Sprague-Dawley, rat, po; remark: listed apart in the source
in vitro [10] = details: PAMPA
physchem [11] = details: octanol/water
Rattus norvegicus [12] = species on record: Rattus norvegicus; experiment: animal or person; details: Sprague-Dawley; remark: listed apart in the source
[13] = Ratio of free drug concentration in brain to plasma of rat; type: ADME, cell-free; details: brain and plasma
[14] = Drug concentration in plasma of monoiodoacetate-induced Sprague-Dawley rat model of osteoarthritis at 30 mg/kg, po administered for 5 days and measured after 15 mins; type: ADME, organism-based; details: time 5 day
[15] = Cardiotoxicity in conscious dog CV model assessed as effect on heart rate upto […] microg/ml by ECG analysis; type: toxicity, Canis lupus familiaris; details: dose < 5.5 µg/ml
[16] = Drug concentration in plasma of monoiodoacetate-induced Sprague-Dawley rat model of osteoarthritis at 3 mg/kg, po administered for 5 days and measured after 15 mins; type: ADME, organism-based; details: time 5 day
[17] = Drug concentration in brain of monoiodoacetate-induced acute Sprague-Dawley rat model of osteoarthritis at 10 mg/kg, po administered for 5 days and measured after 15 mins; type: ADME, organism-based; details: time 5 day, read-out: Ct
[18] = Drug concentration in plasma of monoiodoacetate-induced acute Sprague-Dawley rat model of osteoarthritis at 30 mg/kg, po administered for 5 days and measured after 15 mins; type: ADME, organism-based; details: time 5 day
[19] = Drug concentration in brain of monoiodoacetate-induced chronic Sprague-Dawley rat model of osteoarthritis at 10 mg/kg, po administered twice daily for 5 days; type: ADME, organism-based; details: time 5 day, read-out: Ct
[20] = Clearance in iv dosed dog; type: ADME, organism-based, Canis lupus familiaris; details: in vivo
[21] = Cardiotoxicity in conscious dog CV model assessed as effect on PR interval upto 47 uM by ECG analysis; type: toxicity, Canis lupus familiaris
[22] = Drug concentration in brain of monoiodoacetate-induced chronic Sprague-Dawley rat model of osteoarthritis at 3 mg/kg, po administered twice daily for 5 days; type: ADME, organism-based; details: time 5 day, read-out: Ct
[23] = biological target: T1, Sodium channel protein type 9 subunit alpha (Homo sapiens, UniProt Q15858)
[24] = Drug concentration in plasma of monoiodoacetate-induced chronic Sprague-Dawley rat model of osteoarthritis at 10 mg/kg, po administered twice for 1 day; type: ADME, organism-based
[25] = Drug concentration in brain of monoiodoacetate-induced chronic Sprague-Dawley rat model of osteoarthritis at 0.3 mg/kg, po administered twice daily for 5 days; type: ADME, organism-based; details: time 5 day, read-out: Ct
[26] = Drug concentration in rat plasma assessed as free fraction; type: ADME, cell-free
in vivo [27] = details: Sprague-Dawley, rat, iv
[28] = Drug concentration in plasma of monoiodoacetate-induced chronic Sprague-Dawley rat model of osteoarthritis at 0.3 mg/kg, po administered twice for 1 day; type: ADME, organism-based
[29] = biological target: Sodium channel protein type 5 subunit alpha (Homo sapiens, UniProt Q14524)
[30] = Drug concentration in plasma of monoiodoacetate-induced chronic Sprague-Dawley rat model of osteoarthritis at 10 mg/kg, po administered twice daily for 5 days; type: ADME, organism-based; details: time 5 day
[31] = Volume of distribution at steady state in orally dosed dog; type: ADME, organism-based, Canis lupus familiaris; details: in vivo, po
[32] = Cardiotoxicity in conscious dog CV model assessed as effect on QRS complex upto 47 uM by ECG analysis; type: toxicity, Canis lupus familiaris
[33] = Drug concentration in plasma of monoiodoacetate-induced chronic Sprague-Dawley rat model of osteoarthritis at 3 mg/kg, po administered twice for 1 day; type: ADME, organism-based
[34] = Drug concentration in plasma of monoiodoacetate-induced chronic Sprague-Dawley rat model of osteoarthritis at 1 mg/kg, po administered twice for 1 day; type: ADME, organism-based
[35] = Drug concentration in brain of monoiodoacetate-induced acute Sprague-Dawley rat model of osteoarthritis at 3 mg/kg, po administered for 5 days and measured after 15 mins; type: ADME, organism-based; details: time 5 day, read-out: Ct
[36] = biological target: T1, Sodium channel protein type 9 subunit alpha; experiment: Inhibition of recombinant human Nav 1.7 expressed in HEK293F cells at […] holding potential by manual voltage clamp electrophysiology method; type: cell-based
[37] = Effect on locomotor activity in rat by rotorod test; type: toxicity
[38] = Inhibition of rat Nav 1.7 by FRET based membrane potential assay
[39] = Oral bioavailability in monkey; type: ADME, organism-based, Macaca mulatta; details: rhesus monkey, in vivo
[40] = Cardiotoxicity in anesthetized rat CV model assessed as effect on PR interval upto 31 uM by ECG analysis; type: toxicity
[41] = Drug concentration in brain of monoiodoacetate-induced chronic Sprague-Dawley rat model of osteoarthritis at 1 mg/kg, po administered twice daily for 5 days; type: ADME, organism-based; details: time 5 day, read-out: Ct
Rattus norvegicus [42] = species on record: Rattus norvegicus; experiment: cells; details: Sprague-Dawley
[43] = Drug concentration in plasma of monoiodoacetate-induced chronic Sprague-Dawley rat model of osteoarthritis at 0.3 mg/kg, po administered twice daily for 5 days; type: ADME, organism-based; details: time 5 day
[44] = Oral bioavailability in dog; type: ADME, organism-based, Canis lupus familiaris; details: in vivo
[45] = Drug concentration in plasma of monoiodoacetate-induced acute Sprague-Dawley rat model of osteoarthritis at 10 mg/kg, po administered for 5 days and measured after 15 mins; type: ADME, organism-based; details: time 5 day
[46] = Drug concentration in plasma of monoiodoacetate-induced chronic Sprague-Dawley rat model of osteoarthritis at 3 mg/kg, po administered twice daily for 5 days; type: ADME, organism-based; details: time 5 day
[47] = Half-life in orally dosed dog; type: ADME, organism-based, Canis lupus familiaris; details: in vivo, route po
[48] = Volume of distribution at steady state in orally dosed monkey; type: ADME, organism-based, Macaca mulatta; details: rhesus monkey, in vivo, po
[49] = Cardiotoxicity in anesthetized rat CV model assessed as effect on QRS complex upto 31 uM by ECG analysis; type: toxicity
[50] = Drug concentration in plasma of monoiodoacetate-induced chronic Sprague-Dawley rat model of osteoarthritis at 1 mg/kg, po administered twice daily for 5 days; type: ADME, organism-based; details: time 5 day
[51] = Drug concentration in rat brain assessed as free fraction; type: ADME, tissue-based
[52] = Drug concentration in plasma of monoiodoacetate-induced acute Sprague-Dawley rat model of osteoarthritis at 3 mg/kg, po administered for 5 days and measured after 15 mins; type: ADME, organism-based; details: time 5 day
[53] = Effect on locomotor activity in rat by locomotor assay; type: toxicity
[54] = Drug exposure in plasma of rat; type: ADME; details: in vivo
[55] = Clearance in iv dosed monkey; type: ADME, organism-based, Macaca mulatta; details: rhesus monkey, in vivo
[56] = Half-life in orally dosed monkey; type: ADME, organism-based, Macaca mulatta; details: rhesus monkey, in vivo; route po
[57] = Drug concentration in brain of monoiodoacetate-induced acute Sprague-Dawley rat model of osteoarthritis at 30 mg/kg, po administered for 5 days and measured after 15 mins; type: ADME, organism-based; details: time 5 day, read-out: Ct
[58] = Drug concentration in plasma of Sprague-Dawley rat model of L5/L6 spinal nerve ligation-induced neuropathic pain at 10 mg/kg, ip by LC/MS analysis; type: ADME, organism-based; details: in vivo
Rattus norvegicus [59] = experiment: Antiallodynic activity in Sprague-Dawley rat model of L5/L6 spinal nerve ligation-induced neuropathic pain assessed as maximal possible effect at 30 mg/kg, ip; type: functional
[60] = Drug concentration in plasma of Sprague-Dawley rat model of L5/L6 spinal nerve ligation-induced neuropathic pain at 3 mg/kg, ip by LC/MS analysis; type: ADME, organism-based; details: in vivo
MDR1 = experiment: in vitro; details: dog, MDCK-MDR1
[61] = Drug concentration in plasma of Sprague-Dawley rat model of L5/L6 spinal nerve ligation-induced neuropathic pain at 30 mg/kg, ip by LC/MS analysis; type: ADME, organism-based; details: in vivo
Rattus norvegicus [62] = experiment: Antiallodynic activity in Sprague-Dawley rat model of L5/L6 spinal nerve ligation-induced neuropathic pain assessed as maximal possible effect at 10 mg/kg, ip; type: functional
[63] = rat, microsomes, 0.5 h, 0.5 µM
[64] = biological target: Sodium channel protein type 10 subunit alpha (Homo sapiens, UniProt Q9Y5Y9); experiment: Inhibition of human Nav1.8 by FRET based membrane potential assay
[65] = human, microsomes, 0.5 h, 0.5 µM
Rattus norvegicus [66] = experiment: Antiallodynic activity in Sprague-Dawley rat model of L5/L6 spinal nerve ligation-induced neuropathic pain assessed as maximal possible effect at 3 mg/kg, ip; type: functional
[67] = biological target: Voltage-gated inwardly rectifying potassium channel KCNH2 (Homo sapiens, UniProt Q12809);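 note: hERG channel blockade measured by electrophysiology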
in vitro [68] = details: dog, MDCK
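Throughout, for logD: distribution coefficient quantified using high-throughput LC-MS.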
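Throughout, for solubility: determined using a high-throughput solubility method.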

T1 sequence (Q15858 whole entry, looked up): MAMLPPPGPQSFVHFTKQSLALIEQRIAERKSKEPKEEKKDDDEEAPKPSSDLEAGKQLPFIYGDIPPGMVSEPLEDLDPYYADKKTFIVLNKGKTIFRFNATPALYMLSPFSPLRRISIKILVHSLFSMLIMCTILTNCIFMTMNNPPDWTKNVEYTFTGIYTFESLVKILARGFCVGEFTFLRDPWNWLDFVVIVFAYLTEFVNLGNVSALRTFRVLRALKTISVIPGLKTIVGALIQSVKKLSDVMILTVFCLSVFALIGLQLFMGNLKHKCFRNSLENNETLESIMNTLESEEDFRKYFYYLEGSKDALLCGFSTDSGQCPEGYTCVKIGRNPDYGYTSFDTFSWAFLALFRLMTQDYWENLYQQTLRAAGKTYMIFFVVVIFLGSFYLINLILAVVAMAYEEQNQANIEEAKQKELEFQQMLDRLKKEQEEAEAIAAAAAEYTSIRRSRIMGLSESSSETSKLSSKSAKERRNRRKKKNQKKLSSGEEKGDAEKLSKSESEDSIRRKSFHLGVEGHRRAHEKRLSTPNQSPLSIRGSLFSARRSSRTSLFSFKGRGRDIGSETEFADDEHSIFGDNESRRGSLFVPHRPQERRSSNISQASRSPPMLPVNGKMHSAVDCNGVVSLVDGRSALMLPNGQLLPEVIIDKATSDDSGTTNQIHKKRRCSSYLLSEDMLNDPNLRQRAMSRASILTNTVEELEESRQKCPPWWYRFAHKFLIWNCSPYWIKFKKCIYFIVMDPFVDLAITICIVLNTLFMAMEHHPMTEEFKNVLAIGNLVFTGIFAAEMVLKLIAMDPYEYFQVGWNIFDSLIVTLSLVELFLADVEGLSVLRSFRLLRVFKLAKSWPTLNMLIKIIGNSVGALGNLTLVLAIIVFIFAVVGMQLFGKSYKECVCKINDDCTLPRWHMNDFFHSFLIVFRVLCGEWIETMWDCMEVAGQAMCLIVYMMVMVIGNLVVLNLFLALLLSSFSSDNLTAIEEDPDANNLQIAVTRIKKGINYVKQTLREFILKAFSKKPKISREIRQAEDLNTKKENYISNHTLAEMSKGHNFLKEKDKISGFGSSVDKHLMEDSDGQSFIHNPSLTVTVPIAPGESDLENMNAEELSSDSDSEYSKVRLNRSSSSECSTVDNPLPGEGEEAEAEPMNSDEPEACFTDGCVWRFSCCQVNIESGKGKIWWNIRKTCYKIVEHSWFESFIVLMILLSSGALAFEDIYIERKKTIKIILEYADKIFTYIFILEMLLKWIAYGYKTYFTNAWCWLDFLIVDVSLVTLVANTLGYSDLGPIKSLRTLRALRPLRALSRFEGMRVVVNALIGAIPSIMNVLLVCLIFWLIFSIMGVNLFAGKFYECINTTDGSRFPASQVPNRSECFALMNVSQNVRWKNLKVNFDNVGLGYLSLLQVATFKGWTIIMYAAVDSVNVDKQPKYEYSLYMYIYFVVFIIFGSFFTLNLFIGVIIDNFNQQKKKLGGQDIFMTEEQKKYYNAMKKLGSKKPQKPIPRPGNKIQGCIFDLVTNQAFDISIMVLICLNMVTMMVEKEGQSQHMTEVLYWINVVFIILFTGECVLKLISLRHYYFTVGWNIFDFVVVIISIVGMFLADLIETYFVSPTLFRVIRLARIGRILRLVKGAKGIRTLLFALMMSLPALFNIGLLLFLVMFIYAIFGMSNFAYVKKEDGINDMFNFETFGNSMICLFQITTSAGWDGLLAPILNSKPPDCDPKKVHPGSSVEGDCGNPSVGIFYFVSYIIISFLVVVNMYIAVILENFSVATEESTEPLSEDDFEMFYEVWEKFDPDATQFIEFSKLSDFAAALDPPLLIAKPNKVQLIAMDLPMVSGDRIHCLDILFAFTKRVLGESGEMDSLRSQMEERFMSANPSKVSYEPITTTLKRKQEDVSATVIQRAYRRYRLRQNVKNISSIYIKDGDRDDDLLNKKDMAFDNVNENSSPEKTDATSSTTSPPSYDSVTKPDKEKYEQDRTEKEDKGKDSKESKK
Sequence of Sodium channel protein type 5 subunit alpha (Q14524 whole entry): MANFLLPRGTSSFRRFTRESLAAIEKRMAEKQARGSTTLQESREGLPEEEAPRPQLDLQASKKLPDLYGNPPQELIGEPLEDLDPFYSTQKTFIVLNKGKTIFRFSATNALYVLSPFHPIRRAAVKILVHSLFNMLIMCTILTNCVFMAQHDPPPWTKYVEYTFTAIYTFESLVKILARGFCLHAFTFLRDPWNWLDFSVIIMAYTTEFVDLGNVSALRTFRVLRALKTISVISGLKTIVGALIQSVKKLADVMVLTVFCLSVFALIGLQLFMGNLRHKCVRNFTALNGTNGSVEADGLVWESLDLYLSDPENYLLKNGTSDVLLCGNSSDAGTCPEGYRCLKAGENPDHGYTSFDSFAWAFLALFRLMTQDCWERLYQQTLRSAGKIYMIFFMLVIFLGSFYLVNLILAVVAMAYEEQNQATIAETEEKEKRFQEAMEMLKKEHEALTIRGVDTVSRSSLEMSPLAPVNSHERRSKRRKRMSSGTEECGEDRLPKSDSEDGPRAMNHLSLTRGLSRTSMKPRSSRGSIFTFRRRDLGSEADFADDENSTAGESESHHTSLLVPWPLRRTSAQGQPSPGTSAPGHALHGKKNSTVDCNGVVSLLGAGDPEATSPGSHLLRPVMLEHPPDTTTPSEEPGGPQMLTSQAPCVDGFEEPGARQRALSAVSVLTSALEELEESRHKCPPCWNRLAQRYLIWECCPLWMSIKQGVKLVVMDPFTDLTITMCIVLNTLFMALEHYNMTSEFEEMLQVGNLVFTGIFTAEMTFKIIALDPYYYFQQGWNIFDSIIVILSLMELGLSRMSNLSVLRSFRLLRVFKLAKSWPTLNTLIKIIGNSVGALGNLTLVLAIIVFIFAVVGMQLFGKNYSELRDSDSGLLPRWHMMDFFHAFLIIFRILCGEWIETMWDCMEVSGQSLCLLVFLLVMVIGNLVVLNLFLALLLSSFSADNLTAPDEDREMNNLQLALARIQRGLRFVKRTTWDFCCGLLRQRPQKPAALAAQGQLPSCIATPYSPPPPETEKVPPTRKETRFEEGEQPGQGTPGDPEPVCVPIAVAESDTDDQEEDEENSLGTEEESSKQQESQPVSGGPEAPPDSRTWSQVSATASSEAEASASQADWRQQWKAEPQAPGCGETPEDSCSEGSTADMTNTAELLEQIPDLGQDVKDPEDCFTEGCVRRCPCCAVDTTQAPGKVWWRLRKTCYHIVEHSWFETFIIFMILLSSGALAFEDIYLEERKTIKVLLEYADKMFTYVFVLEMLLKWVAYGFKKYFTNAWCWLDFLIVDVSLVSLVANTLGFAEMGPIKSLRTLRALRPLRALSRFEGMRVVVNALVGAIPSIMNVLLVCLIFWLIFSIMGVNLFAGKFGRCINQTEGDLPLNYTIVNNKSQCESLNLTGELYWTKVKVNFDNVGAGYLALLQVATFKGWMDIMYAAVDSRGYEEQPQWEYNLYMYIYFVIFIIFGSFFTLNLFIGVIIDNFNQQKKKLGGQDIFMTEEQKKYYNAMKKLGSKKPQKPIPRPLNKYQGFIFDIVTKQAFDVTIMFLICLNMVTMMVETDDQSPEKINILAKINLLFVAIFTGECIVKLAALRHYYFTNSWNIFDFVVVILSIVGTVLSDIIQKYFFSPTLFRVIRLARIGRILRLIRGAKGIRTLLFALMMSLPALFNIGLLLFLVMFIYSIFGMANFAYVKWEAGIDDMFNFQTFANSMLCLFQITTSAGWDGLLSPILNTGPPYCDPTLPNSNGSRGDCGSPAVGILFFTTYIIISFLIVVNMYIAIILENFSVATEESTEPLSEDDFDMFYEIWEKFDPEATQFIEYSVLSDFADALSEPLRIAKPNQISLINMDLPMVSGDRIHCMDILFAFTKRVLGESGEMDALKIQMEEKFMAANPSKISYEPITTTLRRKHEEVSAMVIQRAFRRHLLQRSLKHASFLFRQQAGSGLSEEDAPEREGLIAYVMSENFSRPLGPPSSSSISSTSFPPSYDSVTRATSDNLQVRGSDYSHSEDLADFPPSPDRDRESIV
Sequence of Voltage-gated inwardly rectifying potassium channel KCNH2 (Q12809 whole entry): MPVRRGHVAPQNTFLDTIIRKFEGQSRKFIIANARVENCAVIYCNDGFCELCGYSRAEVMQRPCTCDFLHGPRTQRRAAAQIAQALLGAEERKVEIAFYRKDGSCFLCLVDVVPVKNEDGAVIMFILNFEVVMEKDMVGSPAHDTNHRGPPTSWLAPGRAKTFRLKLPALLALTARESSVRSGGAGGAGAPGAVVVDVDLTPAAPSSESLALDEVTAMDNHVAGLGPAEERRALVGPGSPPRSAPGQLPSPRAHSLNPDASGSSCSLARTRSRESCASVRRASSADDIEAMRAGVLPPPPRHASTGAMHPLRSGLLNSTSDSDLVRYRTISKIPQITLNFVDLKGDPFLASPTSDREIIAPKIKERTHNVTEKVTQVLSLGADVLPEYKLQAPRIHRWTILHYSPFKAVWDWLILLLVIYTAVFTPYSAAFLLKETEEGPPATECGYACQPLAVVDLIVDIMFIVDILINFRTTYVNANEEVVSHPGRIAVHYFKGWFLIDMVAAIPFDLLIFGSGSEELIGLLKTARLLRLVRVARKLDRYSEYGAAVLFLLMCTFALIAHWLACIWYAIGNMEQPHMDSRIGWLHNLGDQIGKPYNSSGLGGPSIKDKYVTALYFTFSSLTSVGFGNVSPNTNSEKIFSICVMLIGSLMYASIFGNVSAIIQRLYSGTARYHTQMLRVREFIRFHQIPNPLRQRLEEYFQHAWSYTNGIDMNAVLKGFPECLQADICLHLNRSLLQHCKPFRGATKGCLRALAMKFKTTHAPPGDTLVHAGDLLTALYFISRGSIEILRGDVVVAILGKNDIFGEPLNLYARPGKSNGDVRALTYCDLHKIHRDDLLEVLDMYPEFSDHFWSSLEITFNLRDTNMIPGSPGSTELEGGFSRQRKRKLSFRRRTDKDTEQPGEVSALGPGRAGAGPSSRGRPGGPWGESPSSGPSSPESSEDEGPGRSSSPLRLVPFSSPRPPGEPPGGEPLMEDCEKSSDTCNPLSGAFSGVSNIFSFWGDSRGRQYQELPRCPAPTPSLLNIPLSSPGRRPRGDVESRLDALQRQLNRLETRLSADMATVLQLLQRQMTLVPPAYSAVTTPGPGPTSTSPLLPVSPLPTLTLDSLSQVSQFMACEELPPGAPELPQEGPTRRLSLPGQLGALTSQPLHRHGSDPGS

SMILES: O=C(c1ccc2cc(Oc3ccc(C(F)(F)F)cn3)ccc2n1)N1CCNCC1
- Activity [1]: Non-Toxic
- EC50 (Rattus norvegicus [2]): 0.04 µg/mL (≈ 0.0994 µM)
- concentration at 120 h [3]: 510 ng/mL
- solubility (physchem [4]): 200 µM (≈ 80.5 µg/mL)
- half-life (in vivo [5]): 12.8 h
- Activity [6]: Non-Toxic
- Vdss [7]: 11.5 L/kg
- IC50 [8]: 6.6 µM
- bioavailability (in vivo [9]): 98%
- Papp (in vitro [10]): 4.7 ×10⁻⁶ cm/s
- logD (physchem [11]): 3.1
- EC50 (Rattus norvegicus [12]): 0.17 µg/mL (≈ 0.422 µM)
- Kp uu [13]: 0.08
- concentration at 120 h [14]: 1060 ng/mL
- Activity [15]: Non-Toxic
- concentration at 120 h [16]: 160 ng/mL

SMILES: O=C(c1ccc2cc(Oc3ccc(C(F)(F)F)cn3)ccc2n1)N1CC[C@@H](F)C1
- concentration at 120 h [17]: 5240 ng/mL
- concentration at 120 h [18]: 10000 ng/mL
- concentration at 120 h [19]: 4230 ng/mL
- clearance [20]: 5 mL/min/kg
- Activity [21]: Non-Toxic
- concentration at 120 h [22]: 1140 ng/mL
- IC50 [23]: 3.14 µM
- concentration at 24 h [24]: 3440 ng/mL
- concentration at 120 h [25]: 110 ng/mL
- fraction unbound [26]: 0.05
- clearance (in vivo [27]): 7.17 mL/min/kg
- EC50 (Rattus norvegicus [2]): 0.24 µg/mL (≈ 0.592 µM)
- concentration at 24 h [28]: 70 ng/mL
- IC50 [29]: 33 µM
- concentration at 120 h [30]: 5480 ng/mL
- Vdss [31]: 4.1 L/kg
- solubility (physchem [4]): 84 µM (≈ 34 µg/mL)
- Activity [32]: Non-Toxic
- half-life (in vivo [5]): 5.44 h
- concentration at 24 h [33]: 750 ng/mL
- concentration at 24 h [34]: 270 ng/mL
- concentration at 120 h [35]: 1530 ng/mL
- IC50 [36]: 1.1 µM
- Activity [37]: Non-Toxic
- Vdss [7]: 4.06 L/kg
- IC50 [38]: 2.86 µM
- bioavailability [39]: 110%
- Activity [40]: Non-Toxic
- concentration at 120 h [41]: 260 ng/mL
- EC50 (Rattus norvegicus [42]): 4 µg/mL (≈ 9.87 µM)
- concentration at 120 h [43]: 140 ng/mL
- bioavailability (in vivo [9]): 80%
- bioavailability [44]: 85%
- EC50 (Rattus norvegicus [12]): 1.4 µg/mL (≈ 3.45 µM)
- Kp uu [13]: 0.29
- concentration at 120 h [45]: 5180 ng/mL
- concentration at 120 h [46]: 1480 ng/mL
- half-life [47]: 13.4 h
- Vdss [48]: 3.6 L/kg
- Activity [49]: Non-Toxic
- concentration at 120 h [50]: 480 ng/mL
- fraction unbound [51]: 0.015
- concentration at 120 h [52]: 1410 ng/mL
- Activity [53]: Non-Toxic
- Cp [54]: 11200 ng/mL
- clearance [55]: 5 mL/min/kg
- half-life [56]: 7.6 h
- concentration at 120 h [57]: 10800 ng/mL

SMILES: CN1CCN(C(=O)COc2ccc3cc(Oc4ccccn4)ccc3n2)CC1
- Cp [58]: 400 ng/mL
- MPE (Rattus norvegicus [59]): 59%
- Cp [60]: 110 ng/mL
- IC50 [23]: 3.13 µM
- clearance (in vivo [27]): 54 mL/min/kg
- efflux ratio (MDR1): 3.7
- Cp [61]: 1930 ng/mL
- MPE (Rattus norvegicus [62]): 30%
- IC50 [29]: 33 µM
- solubility (physchem [4]): 176 µM (≈ 66.6 µg/mL)
- CLH [63]: 567 mL/min/kg
- half-life (in vivo [5]): 3.38 h
- IC50 [64]: 1.83 µM
- IC50 [8]: 20 µM
- CLH [65]: < 33 mL/min/kg
- bioavailability (in vivo [9]): 10%
- logD (physchem [11]): 2.9
- MPE (Rattus norvegicus [66]): 10%
- Kp uu [13]: 0.88
- IC50 [67]: 30 µM
- Papp (in vitro [68]): 33.4 ×10⁻⁶ cm/s
